In patent US8344009B2, “Substituted phenoxy thiazolidinediones as estrogen related receptor-á modulators” (priority 2007, dated 2013):
Marks after values point to notes of the source that are not given here.

Key:
ZDF fa/fa male rats [1] = test: ZDF diabetic rat model at 0.08, 0.4, 2 and 10 mpk; format: in vivo; settings: for % Hb1Ac / FFA (NEFA) / Glucose / Triglycerides / cholesterol / ketone: 28 day ZDF efficacy study; for circulating glucose levels upon intraperitoneal delivery of insulin (ITT): FIG. 10
From the text: Briefly, sixty-five ZDF fa/fa male rats were received at four weeks of age and allowed to acclimate for one week. At five week of age the animals were single housed in cages in a temperature-controlled room with 12-hour light/dark cycle. They were allowed ad libitum access to water and food and throughout the study were maintained on a Purina 5008 diet. […] Animals were given Compound 1 orally once a day for 28 days in the morning at 0.08, 0.4, 2.0 and 10 mpk. The vehicle used for Compound 1 in this study consisted of 15% VE-TEPG, 30% PEG400 and 55% water. Food intake, body weight, glucose, insulin, triglyceride and free fatty acid levels were monitored throughout the study using blood collected from the tail vein. At day 16 of the study an insulin tolerance test (ITT) was done to evaluate peripheral insulin sensitivity. On day 22 an OGTT was done to assess glucose disposal rates. On the day of the necropsy the rats were bled through the orbital sinus under CO2:O2 anesthesia. Animals were sacrificed and several tissues were collected, frozen in liquid nitrogen and stored at −80° C. Serum plasma samples were prepared by centrifugation in EDTA containing tubes, transferred into 96 well plates and stored at −80° C.

ZDF fa/fa male rats [2] = test: ZDF diabetic rat model (3, 10, 30 mpk); format: in vivo; settings: for % Fat Day 18: Q-NMR; for FFA (NEFA) / Glucose / Triglycerides / cholesterol / ketone: 26 day ZDF rat efficacy study; for circulating glucose levels upon intraperitoneal delivery of insulin (ITT): FIG. 4, ITT at day 11
From the text: The ZDF rat is a monogenic model of Type II Diabetes. […] This mutation results in a hyperphagic phenotype and the rodent develops obesity, hyperlipidemia, fasting hyperglycemia and Type II Diabetes. The model at 7 weeks of age develops hyperinsulinemia followed by a loss of glucose stimulated insulin secretion due to beta islet failure. Fifty ZDF fa/fa male rats were received at four weeks of age and allowed to acclimate for one week. At five week of age the animals were single housed in cages in a temperature-controlled room with 12-hour light/dark cycle. They were allowed ad libitum access to water and food and throughout the study were maintained on a Purina 5008 diet. Animals were sorted into five groups based first on glucose levels and then at body weight (average fed glucose levels and body weight at 7 weeks of age were 488 mg/dL and 282 grams, respectively). Animals were given Compound 1 orally once a day for 25 days in the morning at 3 mpk, 10 mpk and 30 mpk. A separate group was dosed daily with vehicle. The vehicle used for Compound 1 in this study consisted of 15% VE-TEPG, 30% PEG400 and 55% water. Food intake, body weight, glucose, insulin, triglyceride and free fatty acid levels were monitored throughout the study using blood collected from the tail vein. At day 11 of the study an insulin tolerance test (ITT) was done to evaluate peripheral insulin sensitivity. On day 19 an OGTT was done to assess glucose disposal rates. […] On the day of the necropsy the rats were bled through the orbital sinus under CO2:O2 anesthesia. Animals were sacrificed and several tissues were collected, frozen in liquid nitrogen and stored at −80° C. Serum plasma samples were prepared by centrifugation in EDTA containing tubes, transferred into 96 well plates and stored at −80° C.

With `COc1cc(/C=C2\SC(=O)NC2=O)ccc1Oc1ccc(C#N)cc1C(F)(F)F` [Compound 1, 4-[4-(2,4-Dioxo-thiazolidin-5-ylidenemethyl)-2-methoxy-phenoxy]-3-trifluoromethyl-benzonitrile] the “Body weight change (0-28 day)” value (ZDF fa/fa male rats [1]; 0.08 mpk orally once a day) was 71.7, the “Total food intake (0-28 days)” value (ZDF fa/fa male rats [1]; 0.08 mpk orally once a day) was 804.5 and the “% Hb1Ac” value (ZDF fa/fa male rats [1]; 0.08 mpk) was 10.1%. The “FFA (NEFA)” value (ZDF fa/fa male rats [1]; 0.08 mpk) was 1.2 mM, the Glucose (ZDF fa/fa male rats [1]; 0.08 mpk) was 444 mg/dL and the Triglycerides (ZDF fa/fa male rats [1]; 0.08 mpk) was 770 mg/dL. For the same molecule, the cholesterol (ZDF fa/fa male rats [1]; 0.08 mpk) was 118 mg/dL, the ketone (ZDF fa/fa male rats [1]; 0.08 mpk) was 162 µmol/L and the “Body weight change (0-28 day)” value (ZDF fa/fa male rats [1]; 0.4 mpk orally once a day) was 61.9. For the same molecule, the “Total food intake (0-28 days)” value (ZDF fa/fa male rats [1]; 0.4 mpk orally once a day) was 792.3, the “% Hb1Ac” value (ZDF fa/fa male rats [1]; 0.4 mpk) was 10.0% and the “FFA (NEFA)” value (ZDF fa/fa male rats [1]; 0.4 mpk) was 0.61 mM. For the same molecule, the Glucose (ZDF fa/fa male rats [1]; 0.4 mpk) was 419 mg/dL, the Triglycerides (ZDF fa/fa male rats [1]; 0.4 mpk) was 672 mg/dL and the cholesterol (ZDF fa/fa male rats [1]; 0.4 mpk) was 119 mg/dL. The ketone (ZDF fa/fa male rats [1]; 0.4 mpk) was 113 µmol/L, the “Body weight change (0-28 day)” value (ZDF fa/fa male rats [1]; 2.0 mpk orally once a day) was 80.4 and the “Total food intake (0-28 days)” value (ZDF fa/fa male rats [1]; 2.0 mpk orally once a day) was 792.6. For the same molecule, the “% Hb1Ac” value (ZDF fa/fa male rats [1]; 2.0 mpk) was 8.8%, the “FFA (NEFA)” value (ZDF fa/fa male rats [1]; 2.0 mpk) was 0.87 mM and the Glucose (ZDF fa/fa male rats [1]; 2.0 mpk) was 376 mg/dL. For the same molecule, the Triglycerides (ZDF fa/fa male rats [1]; 2.0 mpk) was 605 mg/dL, the cholesterol (ZDF fa/fa male rats [1]; 2.0 mpk) was 117 mg/dL and the ketone (ZDF fa/fa male rats [1]; 2.0 mpk) was 95* umol/L. For the same molecule, the “Body weight change (0-28 day)” value (ZDF fa/fa male rats [1]; 10 mpk orally once a day) was 95.4, the “Total food intake (0-28 days)” value (ZDF fa/fa male rats [1]; 10 mpk orally once a day) was 771.4 and the “% Hb1Ac” value (ZDF fa/fa male rats [1]; 10.0 mpk) was 7.7%. For the same molecule, the “FFA (NEFA)” value (ZDF fa/fa male rats [1]; 10.0 mpk) was 0.75 mM, the Glucose (ZDF fa/fa male rats [1]; 10.0 mpk) was 274* mg/dL and the Triglycerides (ZDF fa/fa male rats [1]; 10.0 mpk) was 506 mg/dL. The cholesterol (ZDF fa/fa male rats [1]; 10.0 mpk) was 121 mg/dL, the ketone (ZDF fa/fa male rats [1]; 10.0 mpk) was 85* umol/L and the “circulating glucose levels upon intraperitoneal delivery of insulin (ITT)” value (ZDF fa/fa male rats [1]) was “reduction in circulating glucose levels”. For the same molecule, the “circulating glucose levels upon intraperitoneal delivery of insulin (ITT)” value (ZDF fa/fa male rats [1]; listed as compound 1) was “normalizing glucose levels at the 30 minute time point”, the “AUC of glucose during the ITT” value (ZDF fa/fa male rats [1]; FIG. 10 right panel, 0-60 and 0-120 minute time point) was “reduction of AUC of glucose” and the fasting glucose levels (ZDF fa/fa male rats [1]; FIG. 11, after a 4 and 16 hour fast) was “reduction in fasting glucose levels”. The “plasma glucose following an oral glucose tolerance test” value (ZDF fa/fa male rats [1]; FIG. 12, OGTT day 22) was “reducing fasting plasma glucose”, the “fed plasma glucose levels” value (ZDF fa/fa male rats [1]; FIG. 13, first three weeks of the study) was “lowering of fed plasma glucose levels” and the “Body weight change (0-25 day)” value (ZDF fa/fa male rats [2]; 3 mpk orally once a day) was 62.7*. The “Total food intake (0-25 days)” value (ZDF fa/fa male rats [2]; 3 mpk orally once a day) was 727, the “% Fat Day 18” value (ZDF fa/fa male rats [2]; 3 mpk orally once a day) was 58** % and the “FFA (NEFA)” value (ZDF fa/fa male rats [2]; 3 mpk) was 0.65 mM. The Glucose (ZDF fa/fa male rats [2]; 3 mpk) was 584.88 mg/dL, the Triglycerides (ZDF fa/fa male rats [2]; 3 mpk) was 596.33 mg/dL and the cholesterol (ZDF fa/fa male rats [2]; 3 mpk) was 145.70 mg/dL. The ketone (ZDF fa/fa male rats [2]; 3 mpk) was 183.97 µmol/L, the “Body weight change (0-25 day)” value (ZDF fa/fa male rats [2]; 10 mpk orally once a day) was 49.3 and the “Total food intake (0-25 days)” value (ZDF fa/fa male rats [2]; 10 mpk orally once a day) was 720. For the same molecule, the “% Fat Day 18” value (ZDF fa/fa male rats [2]; 10 mpk orally once a day) was 59** %, the “FFA (NEFA)” value (ZDF fa/fa male rats [2]; 10 mpk) was 0.54 mM and the Glucose (ZDF fa/fa male rats [2]; 10 mpk) was 549.63 mg/dL. For the same molecule, the Triglycerides (ZDF fa/fa male rats [2]; 10 mpk) was 402.39** mg/dL, the cholesterol (ZDF fa/fa male rats [2]; 10 mpk) was 156.08* mg/dL and the ketone (ZDF fa/fa male rats [2]; 10 mpk) was 144.61 µmol/L. For the same molecule, the “Body weight change (0-25 day)” value (ZDF fa/fa male rats [2]; 30 mpk orally once a day) was 65.3*, the “Total food intake (0-25 days)” value (ZDF fa/fa male rats [2]; 30 mpk orally once a day) was 703** and the “% Fat Day 18” value (ZDF fa/fa male rats [2]; 30 mpk orally once a day) was 60*** %. The “FFA (NEFA)” value (ZDF fa/fa male rats [2]; 30 mpk) was 0.48 mM, the Glucose (ZDF fa/fa male rats [2]; 30 mpk) was 545.64 mg/dL and the Triglycerides (ZDF fa/fa male rats [2]; 30 mpk) was 320.94*** mg/dL. For the same molecule, the cholesterol (ZDF fa/fa male rats [2]; 30 mpk) was 169.92** mg/dL, the ketone (ZDF fa/fa male rats [2]; 30 mpk) was 134.84* umol/L and the “fed free fatty acid levels” value (ZDF fa/fa male rats [2]; FIG. 3, versus vehicle control) was “reduces”. For the same molecule, the fed triglyceride levels (ZDF fa/fa male rats [2]; FIG. 3, versus vehicle control) was “reduces”, the “circulating glucose levels upon intraperitoneal delivery of insulin (ITT)” value (ZDF fa/fa male rats [2]) was “reduction in circulating glucose levels” and the “circulating glucose levels upon intraperitoneal delivery of insulin (ITT)” value (ZDF fa/fa male rats [2]; listed as compound 1) was “normalizing glucose levels at the 30 minute time point”. The “AUC of glucose during the ITT” value (ZDF fa/fa male rats [2]; FIG. 4 right panel, 0-60 and 0-120 minute time points) was “reduction of AUC of glucose”, the fasting glucose levels (ZDF fa/fa male rats [2]; FIG. 5, after a 16 hour fast) was “reduction in fasting glucose levels” and the “plasma glucose following an oral glucose tolerance test” value (ZDF fa/fa male rats [2]; FIG. 6, OGTT day 19) was “lowering fasting plasma glucose”. The “insulin release levels following an oral glucose tolerance test” value (ZDF fa/fa male rats [2]; FIG. 7) was “increase on insulin release levels”, the Hb1Ac levels (ZDF fa/fa male rats [2]; FIG. 8, after 26 days treatment) was “reduction in Hb1Ac levels” and the fed glucose levels (ZDF fa/fa male rats [2]; FIG. 8, first three weeks of the study) was “lowering of fed glucose levels”. The “fed plasma insulin levels” value (ZDF fa/fa male rats [2]; FIG. 9) was “increasing fed plasma insulin levels” and the pancreatic insulin content (ZDF fa/fa male rats [2]; FIG. 9) was “increasing”.
